In patent US9974761B2, “Medications for deposition on biological surfaces” (The Procter & Gamble Company, priority 2014, dated 2018):

System: human TRPM8
Experiment: TRPM8 Protocol-FLIPR Assay (intracellular Ca2+)
Assay type: cell-based
Details: for TRPM8 Time Course Activity 50 sec % of WS5 / TRPM8 Time Course Activity 3 min % of WS5 / TRPM8 Time Course Activity 5 min % of WS5 / TRPM8 Time Course Activity 10 min % of WS5: vs 30 uM WS-5; for TRPM8 Time Course Activity 50 sec: fluorescence at 50 sec; for TRPM8 Time Course Activity 3 min: fluorescence at 3 min; for TRPM8 Time Course Activity 5 min: fluorescence at 5 min; for TRPM8 Time Course Activity 10 min: fluorescence at 10 min
Procedure: To determine whether TRPM8 is activated, the intracellular calcium ion (Ca^2+) level was measured from transfected cells with the TRPM8 receptor sequence (SEQ ID NO: 3). HEK-293 (human embryonic kidney) cells stably transfected with human TRPM8 were grown in 15 ml growth medium (high glucose DMEM (Dulbecco's Modification of Eagle's Medium) supplemented with 10% FBS (fetal bovine serum), 100 ug/ml penicillin/streptomycin, 5 μg/ml blasticindin, and 100 μg/ml zeocin) in a 75 cm^2 flask for 3 days at 37° C. in a mammalian cell culture incubator set at 5% CO2 Cells were detached with addition of 2 ml of trypsin-EDTA buffer (GIBCO® 25200, Invitrogen, Grand Island, N.Y.) for about 2-3 min. Trypsin was inactivated by addition of 8 ml growth medium. Cells were transferred to a 50 ml tube and centrifuged at 850 rpm for 3 minutes to remove medium. After centrifugation, a pellet of cells was formed in the bottom of the tube separating them from the supernatant solution. The supernatant was discarded and the cell pellet was suspended in 1 ml of fresh growth medium to which 5 μl (12.5 μg) of Fluo-4 AM (Molecular Probes, Inc., Eugene, Oreg.) calcium indicator was added and incubated for 30 min with gentle shaking. Fluo-4 AM is a fluorescent dye used for quantifying cellular Ca^2+ concentrations in the 100 nM to 1 microM range. At the end of 30 minutes, 45 ml of assay buffer (1× HBSS (Hank's Balanced Salt Solution), 20 mM HEPES (4-(2-Hydroxyethyl)-1-piperazineethanesulfonic acid)) was added to wash cells and the resulting mixture was then centrifuged at 850 rpm for 3 minutes to remove excess buffer and Fluo-4 AM calcium indicator.
The pelleted cells were re-suspended in 10 ml assay buffer and 90 μl aliquots (˜50,000 cells) per well delivered to a 96-well assay plate containing 10 μl of test compounds (1 mM in assay buffer, […]) or buffer control and incubated at room temperature for 30 minutes. After 30 minutes, a plate was placed into a fluorometric imaging plate reader (FLIPR384 from Molecular Devices, Sunnyvale, Calif.) and basal fluorescence recorded (excitation wave length 488 nm and emission wave length 510 nm). Then 20 μl of […] of TRPM8 agonist WS5 coolant in the assay buffer was added and fluorescence recorded. For determining the direct effect of test compounds on TRPM8, fluorescence was measured immediately after addition of each compound (TABLES 2 and 3). Additional discussion of the FLIPR method can be found in Smart et al., Characterization using FLIPR of human vanilloid VR1 receptor pharmacology, European Journal of Pharmacology 417, 51-58 (2001) and Liu et al., Development and validation of a platelet calcium flux assay using a fluorescent imaging plate reader, Analytical Biochemistry 357, 216-224 (2006).
TRPM8 activation was determined by measuring intracellular calcium ion (Ca^2+) level from transfected cells with the TRPM8 receptor gene, as described in EXAMPLE 1, the results of which are shown in TABLES 4 and 5.

## CC(C)[C@@H]1CC[C@@H](C)C[C@H]1C(=O)NCC(NC(=O)[C@@H](C)N)c1ccccc1 (single isomer, unassigned) [Compound 28 fraction 2]
Dose 6.1 nM
  TRPM8 Time Course Activity 50 sec % of WS5: 19.3%
  TRPM8 Time Course Activity 3 min % of WS5: 46.0%
  TRPM8 Time Course Activity 5 min % of WS5: 50.3%
  TRPM8 Time Course Activity 10 min % of WS5: 50.6%
  TRPM8 Time Course Activity 50 sec: 1944.0
  TRPM8 Time Course Activity 3 min: 4350.0
  TRPM8 Time Course Activity 5 min: 4763.0
  TRPM8 Time Course Activity 10 min: 4844.0
Dose 12.2 nM
  TRPM8 Time Course Activity 50 sec % of WS5: 18.0%
  TRPM8 Time Course Activity 3 min % of WS5: 57.6%
  TRPM8 Time Course Activity 5 min % of WS5: 65.7%
  TRPM8 Time Course Activity 10 min % of WS5: 71.1%
  TRPM8 Time Course Activity 50 sec: 1814.0
  TRPM8 Time Course Activity 3 min: 5446.0
  TRPM8 Time Course Activity 5 min: 6224.0
  TRPM8 Time Course Activity 10 min: 6809.0
Dose 24.4 nM
  TRPM8 Time Course Activity 50 sec % of WS5: 23.0%
  TRPM8 Time Course Activity 3 min % of WS5: 68.2%
  TRPM8 Time Course Activity 5 min % of WS5: 76.3%
  TRPM8 Time Course Activity 10 min % of WS5: 82.0%
  TRPM8 Time Course Activity 50 sec: 2311.0
  TRPM8 Time Course Activity 3 min: 6441.0
  TRPM8 Time Course Activity 5 min: 7226.0
  TRPM8 Time Course Activity 10 min: 7848.0
Dose 48.8 nM
  TRPM8 Time Course Activity 50 sec % of WS5: 24.9%
  TRPM8 Time Course Activity 3 min % of WS5: 81.7%
  TRPM8 Time Course Activity 5 min % of WS5: 89.6%
  TRPM8 Time Course Activity 10 min % of WS5: 97.0%
  TRPM8 Time Course Activity 50 sec: 2502.0
  TRPM8 Time Course Activity 3 min: 7721.0
  TRPM8 Time Course Activity 5 min: 8488.0
  TRPM8 Time Course Activity 10 min: 9289.0
Dose 97.6 nM
  TRPM8 Time Course Activity 50 sec % of WS5: 49.8%
  TRPM8 Time Course Activity 3 min % of WS5: 106.9%
  TRPM8 Time Course Activity 5 min % of WS5: 113.5%
  TRPM8 Time Course Activity 10 min % of WS5: 118.8%
  TRPM8 Time Course Activity 50 sec: 5007.0
  TRPM8 Time Course Activity 3 min: 10101.0
  TRPM8 Time Course Activity 5 min: 10747.0
  TRPM8 Time Course Activity 10 min: 11375.0
Dose 195 nM
  TRPM8 Time Course Activity 50 sec % of WS5: 72.4%
  TRPM8 Time Course Activity 3 min % of WS5: 121.5%
  TRPM8 Time Course Activity 5 min % of WS5: 126.8%
  TRPM8 Time Course Activity 10 min % of WS5: 129.8%
  TRPM8 Time Course Activity 50 sec: 7287.0
  TRPM8 Time Course Activity 3 min: 11477.0
  TRPM8 Time Course Activity 5 min: 12007.0
  TRPM8 Time Course Activity 10 min: 12427.0
Dose 390 nM
  TRPM8 Time Course Activity 50 sec % of WS5: 87.1%
  TRPM8 Time Course Activity 3 min % of WS5: 126.5%
  TRPM8 Time Course Activity 5 min % of WS5: 129.9%
  TRPM8 Time Course Activity 10 min % of WS5: 136.0%
  TRPM8 Time Course Activity 50 sec: 8766.0
  TRPM8 Time Course Activity 3 min: 11955.0
  TRPM8 Time Course Activity 5 min: 12301.0
  TRPM8 Time Course Activity 10 min: 13026.0
Dose 781 nM
  TRPM8 Time Course Activity 50 sec % of WS5: 103.7%
  TRPM8 Time Course Activity 3 min % of WS5: 136.4%
  TRPM8 Time Course Activity 5 min % of WS5: 138.3%
  TRPM8 Time Course Activity 10 min % of WS5: 147.4%
  TRPM8 Time Course Activity 50 sec: 10428.0
  TRPM8 Time Course Activity 3 min: 12887.0
  TRPM8 Time Course Activity 5 min: 13091.0
  TRPM8 Time Course Activity 10 min: 14116.0
Dose 1.563 uM
  TRPM8 Time Course Activity 50 sec % of WS5: 112.6%
  TRPM8 Time Course Activity 3 min % of WS5: 134.0%
  TRPM8 Time Course Activity 5 min % of WS5: 136.8%
  TRPM8 Time Course Activity 10 min % of WS5: 145.1%
  TRPM8 Time Course Activity 50 sec: 11331.0
  TRPM8 Time Course Activity 3 min: 12663.0
  TRPM8 Time Course Activity 5 min: 12954.0
  TRPM8 Time Course Activity 10 min: 13892.0
Dose 3.125 uM
  TRPM8 Time Course Activity 50 sec % of WS5: 116.9%
  TRPM8 Time Course Activity 3 min % of WS5: 134.4%
  TRPM8 Time Course Activity 5 min % of WS5: 136.6%
  TRPM8 Time Course Activity 10 min % of WS5: 145.1%
  TRPM8 Time Course Activity 50 sec: 11757.0
  TRPM8 Time Course Activity 3 min: 12699.0
  TRPM8 Time Course Activity 5 min: 12937.0
  TRPM8 Time Course Activity 10 min: 13890.0
Dose 6.25 uM
  TRPM8 Time Course Activity 50 sec % of WS5: 121.6%
  TRPM8 Time Course Activity 3 min % of WS5: 133.8%
  TRPM8 Time Course Activity 5 min % of WS5: 136.2%
  TRPM8 Time Course Activity 10 min % of WS5: 144.0%
  TRPM8 Time Course Activity 50 sec: 12236.0
  TRPM8 Time Course Activity 3 min: 12644.0
  TRPM8 Time Course Activity 5 min: 12891.0
  TRPM8 Time Course Activity 10 min: 13793.0
Dose 12.5 uM
  TRPM8 Time Course Activity 50 sec % of WS5: 123.4%
  TRPM8 Time Course Activity 3 min % of WS5: 132.3%
  TRPM8 Time Course Activity 5 min % of WS5: 135.2%
  TRPM8 Time Course Activity 10 min % of WS5: 143.6%
  TRPM8 Time Course Activity 50 sec: 12415.0
  TRPM8 Time Course Activity 3 min: 12501.0
  TRPM8 Time Course Activity 5 min: 12801.0
  TRPM8 Time Course Activity 10 min: 13755.0
Dose 25 uM
  TRPM8 Time Course Activity 50 sec % of WS5: 120.4%
  TRPM8 Time Course Activity 3 min % of WS5: 126.9%
  TRPM8 Time Course Activity 5 min % of WS5: 129.7%
  TRPM8 Time Course Activity 10 min % of WS5: 137.2%
  TRPM8 Time Course Activity 50 sec: 12110.0
  TRPM8 Time Course Activity 3 min: 11993.0
  TRPM8 Time Course Activity 5 min: 12284.0
  TRPM8 Time Course Activity 10 min: 13140.0
Dose 50 uM
  TRPM8 Time Course Activity 50 sec % of WS5: 125.7%
  TRPM8 Time Course Activity 3 min % of WS5: 130.7%
  TRPM8 Time Course Activity 5 min % of WS5: 133.5%
  TRPM8 Time Course Activity 10 min % of WS5: 137.6%
  TRPM8 Time Course Activity 50 sec: 12648.0
  TRPM8 Time Course Activity 3 min: 12352.0
  TRPM8 Time Course Activity 5 min: 12644.0
  TRPM8 Time Course Activity 10 min: 13179.0
Dose 100 uM
  TRPM8 Time Course Activity 50 sec % of WS5: 121.7%
  TRPM8 Time Course Activity 3 min % of WS5: 125.2%
  TRPM8 Time Course Activity 5 min % of WS5: 127.5%
  TRPM8 Time Course Activity 10 min % of WS5: 128.3%
  TRPM8 Time Course Activity 50 sec: 12246.0
  TRPM8 Time Course Activity 3 min: 11826.0
  TRPM8 Time Course Activity 5 min: 12074.0
  TRPM8 Time Course Activity 10 min: 12287.0
